For assay [1], the system named is Bcl-2. The experiment in a line: Quantification of Bcl-2 (ELISA), MCF-7. Type of assay: cell-based, human. Conditions: MCF-7 cells; compared to untreated cells. As for the experimental part:
The intracellular content of Bcl-2 was quantified using the human Bcl-2 ELISA kit (Abcam, Cambridge, MA, USA). For the sample preparation, the cells were lysed with 1X lysis buffer. After 1 h of incubation at room temperature, the sample was spun at 1,000 g for 15 min and the supernatant was used for Bcl-2 measurement. Briefly, 80 μL of sample diluent and 20 μL of sample were added into the wells coated with monoclonal antibody to human Bcl-2, and after that the wells were washed twice with the wash buffer. Next, 50 μL of biotin-conjugate were added into the wells. After 2 h of incubation at room temperature on a microplate shaker, 100 μL of streptavidin-horseradish peroxidase were added. The sample was incubated again for 1 h at room temperature on a microplate shaker. The solution was withdrawn and the wells were washed with 3X wash buffer. Immediately, 100 μL of TMB substrate solution were added. Finally, 100 μL of stop solution were added into each well to stop the enzyme reaction. The absorbance was read using an ELISA reader at 450 and 620 nm wavelengths. Bcl-2 protein concentration was determined from the standard protein graphic using the optical densities of the samples[32].
On the technique in general: An ELISA detects its analyte on a solid surface through an enzyme-linked reagent.

The test system of assay [2] is Bax. The experiment in a line: Quantification of Bax (immunometric assay), HL-60. Conditions: HL-60 cells; compared to untreated cells. Type of assay: cell-based, human. As for the experimental part:
(§1) Bax protein concentration determination was carried out using the Human Bax Enzyme Immunometric Assay kit (Assay Designs, Ann Arbor, MI, USA). The lysate (sample) preparation was carried out according to the manual. Following centrifugation (16,000 g for 15 min), the cells were resuspended in Modified Cell lysis buffer 4 [0.5 μL/mL of Sigma Protease Inhibitor Cocktail and 1 mM phenylmethylsulfonyl fluoride (PMSF)]. Cell lysate (100 μL) (sample) was added into the wells coated with monoclonal antibody to human Bax-α in triplicate. The plate was tapped gently to mix the contents. The sample was incubated at room temperature on a plate shaker for 1 h. The wells were emptied and washed with 5X wash buffer. After the final wash, the plate was tapped gently on a lint free paper towel to remove any remaining wash buffer. The sample was incubated again for 1 h at room temperature on a plate shaker after the addition of 100 μL of specific antibody (biotinylated monoclonal antibody to Bax-α) into each well. The wells were washed again with 5X wash buffer and emptied. Next, 100 μL of blue conjugate (streptavidin conjugated to horseradish peroxidase) was added into each well. […] The optical densities were read at 450 and 570 nm using an ELISA reader. Bax protein concentration was determined from the standard protein graphic using the optical densities of the samples[32].

The subject of assay [3] is caspase-9. Kind of assay: Caspase-9 colorimetric assay, HL-60. The settings on record: HL-60 cells. Type of assay: cell-based, human. As for the experimental part: (§2) Caspases-3, -8 and -9 assays were measured according to manufacturer’s instructions using a caspase colorimetric protease kit (Abcam, Cambridge, MA, USA). Cells were treated with compounds for 48 h. The cells were lysed by the addition of 50 μL of chilled cell lysis buffer and incubated on ice for 10 min. The resulting cell lysate was centrifuged for 1 min at 10,000 g, and the supernatant was collected. The cell lysate containing […] of protein was incubated with […] of 4 mmol/L pNA-conjugated substrates (DEVD-pNA, IETD-pNA and LEHD-pNA; substrates for caspase-3, -8 and -9, respectively) at 37 °C for 3 h. The amount of pNA released was measured at 405 nm using an ELISA microplate reader (Bio rad). The caspases activity was expressed as fold difference, [33].

For assay [4], the system named is HeLa cervical cancer cells. The experiment in a line: MTT antiproliferative assay, HeLa. Conditions: Homo sapiens, MTT assay, cancer cell line, mean of three independent experiments ± S.E.M., read-out: IC50 HeLa Cervical. Type of assay: cell-based. On the technique in general: Tetrazolium dyes change colour on reduction, which living cells bring about.
Assay [5] concerns MCF-7 breast cancer cells. The experiment in a line: Quantification of apoptosis (Annexin V-PI), MCF-7. Format: cell-based, human. The settings on record: MCF-7 cells, 5 and 10 µM, 24 h. The source says: Apoptotic population of cancer cells was quantified by Annexin V-propidium iodide (PI) staining technique (Abcam, Cambridge, MA, USA) using a flow cytometer as per published technique.

The test system of assay [6] is MCF-10A mammary epithelial cells. The experiment in a line: MTT assay on normal MCF-10A cells. Type of assay: cell-based. The settings on record: Homo sapiens, MTT assay, normal cells, 48 h, read-out: IC50 MCF-10A Breast (normal cell line).
Assay [7] has as its system DU145 prostate cancer cells. Kind of assay: MTT antiproliferative assay, DU145. The settings on record: Homo sapiens, DU-145; MTT assay; cancer cell line; mean of three independent experiments ± S.E.M.; read-out: IC50 DU145 Prostate. Type of assay: cell-based.
Assay [8] concerns Bax. The experiment in a line: Quantification of Bax (immunometric assay), MCF-7. Format: cell-based, human. Conditions: MCF-7 cells; compared to untreated cells. As for the experimental part: as §1
Assay [9] relates to MCF-7 breast cancer cells. Kind of assay: MTT antiproliferative assay, MCF-7. Format: cell-based. The settings on record: Homo sapiens, MCF7; MTT assay; cancer cell line; mean of three independent experiments ± S.E.M.; read-out: IC50 MCF-7 Breast.
For assay [10], the system named is cytosolic cytochrome c. Kind of assay: Cytosolic cytochrome c estimation (ELISA), HL-60. Type of assay: cell-based, human. The settings on record: HL-60 cells; cytosolic fraction. As for the experimental part: Cells were collected by centrifugation at 600 g for 5 min at 4 °C. The cell pellets were washed once with ice-cold PBS and resuspended in cytosol extraction buffer (20 mM Hepes-KOH, pH 7.5, 10 mM KCl, 1.5 mM MgCl2, 1 mM sodium EDTA, 1 mM sodium EGTA, 1 mM dithiothreitol and 0.1 mM PMSF) containing 250 mM sucrose on ice for 10 min. The cells were homogenized with the grinder on ice. Further, the homogenates were centrifuged at 700 g for 10 min at 4 °C. The supernatants were centrifuged at 10,000 × g for 30 min at 4 °C. Supernatant was collected as cytosolic fraction.
Cytosolic cytochrome c levels were determined using quantitative sandwich enzyme immunoassay using microplate reader. Sample or standard (100 μL) was added into each well and incubated for 2 h at room temperature. The wells were washed several times with wash buffer. The plate was inverted and cleaned with paper toweling. Cytochrome c conjugate (200 μL) was added into each well and incubated for 2 h at room temperature. Wells were washed several times with wash buffer. Substrate solution (200 μL) was added into each well and incubated for 30 min at room temperature. Finally, stop solution (50 μL) was added into wells. The optical density (absorbance) of each well was determined using microplate reader at a 450 nm wavelength.

In assay [11] the test system is caspase-9. The experiment in a line: Caspase-9 colorimetric assay, MCF-7. Format: cell-based, human. Conditions: MCF-7 cells. The method, then:
as §2

Assay [12] relates to caspase-8. Kind of assay: Caspase-8 colorimetric assay, MCF-7. Type of assay: cell-based, human. The settings on record: MCF-7 cells; data not showed. As for the experimental part:
as §2

Here are results for one molecule from PMC5559490, “Synthesis of Saccharumoside-B analogue with potential of antiproliferative and pro-apoptotic activities” (Scientific Reports, 2017).

The IC50 is the midpoint of a concentration-inhibition curve.

The structures appear in SMILES notation.

Turning to `COc1cc(CO)ccc1OC1OC(COC(=O)c2ccc(F)cc2)C(O)C(O)C1O` (stereo not drawn) [Compound 9f, (6-(4-(hydroxymethyl)-2-methoxyphenoxy)-tetrahydro-3,4,5-trihydroxy-2H-pyran-2-yl)methyl 4-fluorobenzoate], the “effect on Bcl-2 levels” value in assay [1] was “dose dependent inhibition of Bcl-2”. In addition, the figures for the “effect on Bax protein levels” value in assay [2] and in assay [8] were “increase in Bax protein levels” and “dose dependently increased”, respectively. For the same molecule, the “effect on caspase-9 activity” value was “enhanced caspase-3 and -9 activities” in assay [3]; “enhanced caspase-3 and -9 activities” in assay [11]. For the same molecule, the IC50 in assay [4] was 7.85 ± 0.57 µM; in assay [6], greater than 100 µM; in [7], 10.8 ± 0.42 µM; in [9], 6.13 ± 0.64 µM. Besides, the apoptotic cell population entry in [5] is listed as “dose-dependent increase in the early apoptotic to late apoptotic population”. For the same molecule, in [10], the “effect on cytosolic cytochrome c levels” value was “dose dependently increased”. In addition, the “effect on caspase-8 activity” value in [12] is recorded as “did not show considerable effect”.
